Experimental data: ChEMBL document CHEMBL5236651, “Synthesis and antibacterial activity of novel 2‑fluoro ketolide antibiotics with 11,12‑quinoylalkyl side chains” (2023)
In brackets after ≈: the same amount, converted by molar mass.

How the values were obtained:
Type in all cases: functional
Enterococcus faecalis [1] = assay: Antibacterial activity against vancomycin-sensitive Enterococcus faecalis […] assessed as inhibition of bacterial growth by CLSI based micro broth double dilution method
Streptococcus pneumoniae [2] = assay: Antibacterial activity against erythromycin-sensitive Streptococcus pneumoniae ATCC 49619 assessed as inhibition of bacterial growth by CLSI based micro broth double dilution method
Pseudomonas aeruginosa [3] = assay: Antibacterial activity against Pseudomonas aeruginosa ATCC 27853 assessed as inhibition of bacterial growth by CLSI based micro broth double dilution method
Streptococcus pyogenes [4] = assay: Antibacterial activity against erythromycin-sensitive Streptococcus pyogenes ATCC 19615 assessed as inhibition of bacterial growth by CLSI based micro broth double dilution method
Pseudomonas aeruginosa [5] = assay: Antibacterial activity against Pseudomonas aeruginosa PAO1 assessed as inhibition of bacterial growth by CLSI based micro broth double dilution method
Enterococcus faecalis [6] = assay: Antibacterial activity against vancomycin-resistant Enterococcus faecalis ATCC 51575 assessed as inhibition of bacterial growth by CLSI based micro broth double dilution method
Staphylococcus aureus [7] = assay: Antibacterial activity against methicillin-sensitive Staphylococcus aureus ATCC 29213 assessed as inhibition of bacterial growth by CLSI based micro broth double dilution method
Escherichia coli [8] = assay: Antibacterial activity against ESBL-positive Escherichia coli ATCC 35218 assessed as inhibition of bacterial growth by CLSI based micro broth double dilution method
Escherichia coli [9] = assay: Antibacterial activity against ESBL-negative Escherichia coli ATCC 25922 assessed as inhibition of bacterial growth by CLSI based micro broth double dilution method
Streptococcus pyogenes [10] = assay: Antibacterial activity against erythromycin-resistant Streptococcus pyogenes 12-1 assessed as inhibition of bacterial growth by CLSI based micro broth double dilution method
Klebsiella pneumoniae [11] = assay: Antibacterial activity against ESBL negative Klebsiella pneumoniae 16-2 assessed as inhibition of bacterial growth by CLSI based micro broth double dilution method
Klebsiella pneumoniae [12] = assay: Antibacterial activity against ESBL negative Klebsiella pneumoniae 7 assessed as inhibition of bacterial growth by CLSI based micro broth double dilution method
Escherichia coli [13] = assay: Antibacterial activity against Escherichia coli 16-7 assessed as inhibition of bacterial growth by CLSI based micro broth double dilution method
Streptococcus pneumoniae [14] = assay: Antibacterial activity against erythromycin-resistant Streptococcus pneumoniae 12-3 assessed as inhibition of bacterial growth by CLSI based micro broth double dilution method
Klebsiella pneumoniae [15] = assay: Antibacterial activity against ESBL positive Klebsiella pneumoniae ATCC 700603 assessed as inhibition of bacterial growth by CLSI based micro broth double dilution method
Staphylococcus aureus [16] = assay: Antibacterial activity against methicillin-sensitive Staphylococcus aureus 15 assessed as inhibition of bacterial growth by CLSI based micro broth double dilution method
Enterococcus faecalis [17] = assay: Antibacterial activity against vancomycin-resistant Enterococcus faecalis ATCC 51299 assessed as inhibition of bacterial growth by CLSI based micro broth double dilution method
Staphylococcus aureus [18] = assay: Antibacterial activity against methicillin-sensitive Staphylococcus aureus 16-1 assessed as inhibition of bacterial growth by CLSI based micro broth double dilution method
Pseudomonas aeruginosa [19] = assay: Antibacterial activity against Pseudomonas aeruginosa 16-11 assessed as inhibition of bacterial growth by CLSI based micro broth double dilution method
[20] = tested on: Staphylococcus epidermidis; assay: Antibacterial activity against methicillin-sensitive Staphylococcus epidermidis 16-4 assessed as inhibition of bacterial growth by CLSI based micro broth double dilution method
[21] = tested on: Staphylococcus epidermidis; assay: Antibacterial activity against methicillin-sensitive Staphylococcus epidermidis ATCC 12228 assessed as inhibition of bacterial growth by CLSI based micro broth double dilution method
Enterococcus faecalis [22] = assay: Antibacterial activity against vancomycin-sensitive Enterococcus faecalis 16-6 assessed as inhibition of bacterial growth by CLSI based micro broth double dilution method

CC[C@H]1OC(=O)[C@@](C)(F)C(=O)[C@H](C)[C@@H](O[C@@H]2O[C@H](C)C[C@H](N(C)C)[C@H]2O)[C@@](C)(OC)C[C@@H](C)C(=O)[C@H](C)[C@H]2N(CCCNc3ccnc4ccccc34)C(=O)O[C@]12C
MIC (Enterococcus faecalis [1]): 0.12 µg/mL (≈ 0.147 µM) | MIC (Streptococcus pneumoniae [2]): ≤ 0.016 µg/mL | MIC (Pseudomonas aeruginosa [3]): > 32 µg/mL | MIC (Streptococcus pyogenes [4]): 0.06 µg/mL (≈ 0.0736 µM) | MIC (Pseudomonas aeruginosa [5]): > 32 µg/mL | MIC (Enterococcus faecalis [6]): > 32 µg/mL | MIC (Staphylococcus aureus [7]): 0.12 µg/mL (≈ 0.147 µM) | MIC (Escherichia coli [8]): 8 µg/mL (≈ 9.82 µM) | MIC (Escherichia coli [9]): 4 µg/mL (≈ 4.91 µM) | MIC (Streptococcus pyogenes [10]): > 32 µg/mL | MIC (Klebsiella pneumoniae [11]): 16 µg/mL (≈ 19.6 µM) | MIC (Klebsiella pneumoniae [12]): 8 µg/mL (≈ 9.82 µM) | MIC (Escherichia coli [13]): 8 µg/mL (≈ 9.82 µM) | MIC (Streptococcus pneumoniae [14]): 0.06 µg/mL (≈ 0.0736 µM) | MIC (Klebsiella pneumoniae [15]): 32 µg/mL (≈ 39.3 µM) | MIC (Staphylococcus aureus [16]): 0.12 µg/mL (≈ 0.147 µM) | MIC (Enterococcus faecalis [17]): > 32 µg/mL | MIC (Staphylococcus aureus [18]): 0.12 µg/mL (≈ 0.147 µM) | MIC (Pseudomonas aeruginosa [19]): > 32 µg/mL | MIC [20]: 0.25 µg/mL (≈ 0.307 µM) | MIC [21]: 0.06 µg/mL (≈ 0.0736 µM) | MIC (Enterococcus faecalis [22]): > 32 µg/mL

CC[C@H]1OC(=O)[C@@](C)(F)C(=O)[C@H](C)[C@@H](O[C@@H]2O[C@H](C)C[C@H](N(C)C)[C@H]2O)[C@@](C)(OC)C[C@@H](C)C(=O)[C@H](C)[C@H]2N(CCCN(C(=O)c3ccccc3)c3ccnc4ccccc34)C(=O)O[C@]12C
MIC (Enterococcus faecalis [1]): 0.25 µg/mL (≈ 0.272 µM) | MIC (Streptococcus pneumoniae [2]): ≤ 0.016 µg/mL | MIC (Pseudomonas aeruginosa [3]): > 32 µg/mL | MIC (Streptococcus pyogenes [4]): 0.12 µg/mL (≈ 0.131 µM) | MIC (Pseudomonas aeruginosa [5]): > 32 µg/mL | MIC (Enterococcus faecalis [6]): > 32 µg/mL | MIC (Staphylococcus aureus [7]): 1 µg/mL (≈ 1.09 µM) | MIC (Escherichia coli [8]): > 32 µg/mL | MIC (Escherichia coli [9]): > 32 µg/mL | MIC (Streptococcus pyogenes [10]): > 32 µg/mL | MIC (Klebsiella pneumoniae [11]): > 32 µg/mL | MIC (Klebsiella pneumoniae [12]): > 32 µg/mL | MIC (Escherichia coli [13]): > 32 µg/mL | MIC (Streptococcus pneumoniae [14]): 0.06 µg/mL (≈ 0.0653 µM) | MIC (Klebsiella pneumoniae [15]): > 32 µg/mL | MIC (Staphylococcus aureus [16]): 1 µg/mL (≈ 1.09 µM) | MIC (Enterococcus faecalis [17]): > 32 µg/mL | MIC (Staphylococcus aureus [18]): 0.5 µg/mL (≈ 0.544 µM) | MIC (Pseudomonas aeruginosa [19]): > 32 µg/mL | MIC [20]: 1 µg/mL (≈ 1.09 µM) | MIC [21]: 1 µg/mL (≈ 1.09 µM) | MIC (Enterococcus faecalis [22]): > 32 µg/mL

CC[C@H]1OC(=O)[C@@](C)(F)C(=O)[C@H](C)[C@@H](O[C@@H]2O[C@H](C)C[C@H](N(C)C)[C@H]2O)[C@@](C)(OC)C[C@@H](C)C(=O)[C@H](C)[C@H]2N(CCCN(C(=O)c3ccccc3)c3cnc4ccccc4c3)C(=O)O[C@]12C
MIC (Enterococcus faecalis [1]): 0.12 µg/mL (≈ 0.131 µM) | MIC (Streptococcus pneumoniae [2]): ≤ 0.016 µg/mL | MIC (Pseudomonas aeruginosa [3]): > 32 µg/mL | MIC (Streptococcus pyogenes [4]): 0.03 µg/mL (≈ 0.0326 µM) | MIC (Pseudomonas aeruginosa [5]): > 32 µg/mL | MIC (Enterococcus faecalis [6]): > 32 µg/mL | MIC (Staphylococcus aureus [7]): 0.25 µg/mL (≈ 0.272 µM) | MIC (Escherichia coli [8]): > 32 µg/mL | MIC (Escherichia coli [9]): > 32 µg/mL | MIC (Streptococcus pyogenes [10]): 32 µg/mL (≈ 34.8 µM) | MIC (Klebsiella pneumoniae [11]): > 32 µg/mL | MIC (Klebsiella pneumoniae [12]): > 32 µg/mL | MIC (Escherichia coli [13]): > 32 µg/mL | MIC (Streptococcus pneumoniae [14]): 0.06 µg/mL (≈ 0.0653 µM) | MIC (Klebsiella pneumoniae [15]): > 32 µg/mL | MIC (Staphylococcus aureus [16]): 0.25 µg/mL (≈ 0.272 µM) | MIC (Enterococcus faecalis [17]): > 32 µg/mL | MIC (Staphylococcus aureus [18]): 0.25 µg/mL (≈ 0.272 µM) | MIC (Pseudomonas aeruginosa [19]): > 32 µg/mL | MIC [20]: 1 µg/mL (≈ 1.09 µM) | MIC [21]: 0.12 µg/mL (≈ 0.131 µM) | MIC (Enterococcus faecalis [22]): > 32 µg/mL

CC[C@H]1OC(=O)[C@@](C)(F)C(=O)[C@H](C)[C@@H](O[C@@H]2O[C@H](C)C[C@H](N(C)C)[C@H]2O)[C@@](C)(OC)C[C@@H](C)C(=O)[C@H](C)[C@H]2N(CCCN(C(C)=O)c3ccnc4ccccc34)C(=O)O[C@]12C
MIC (Enterococcus faecalis [1]): 0.06 µg/mL (≈ 0.07 µM) | MIC (Streptococcus pneumoniae [2]): ≤ 0.016 µg/mL | MIC (Pseudomonas aeruginosa [3]): > 32 µg/mL | MIC (Streptococcus pyogenes [4]): 0.03 µg/mL (≈ 0.035 µM) | MIC (Pseudomonas aeruginosa [5]): > 32 µg/mL | MIC (Enterococcus faecalis [6]): 4 µg/mL (≈ 4.67 µM) | MIC (Staphylococcus aureus [7]): 0.12 µg/mL (≈ 0.14 µM) | MIC (Escherichia coli [8]): 32 µg/mL (≈ 37.3 µM) | MIC (Escherichia coli [9]): 32 µg/mL (≈ 37.3 µM) | MIC (Streptococcus pyogenes [10]): 2 µg/mL (≈ 2.33 µM) | MIC (Klebsiella pneumoniae [11]): > 32 µg/mL | MIC (Klebsiella pneumoniae [12]): > 32 µg/mL | MIC (Escherichia coli [13]): 32 µg/mL (≈ 37.3 µM) | MIC (Streptococcus pneumoniae [14]): 0.03 µg/mL (≈ 0.035 µM) | MIC (Klebsiella pneumoniae [15]): 32 µg/mL (≈ 37.3 µM) | MIC (Staphylococcus aureus [16]): 0.06 µg/mL (≈ 0.07 µM) | MIC (Enterococcus faecalis [17]): 4 µg/mL (≈ 4.67 µM) | MIC (Staphylococcus aureus [18]): 0.06 µg/mL (≈ 0.07 µM) | MIC (Pseudomonas aeruginosa [19]): > 32 µg/mL | MIC [20]: 0.25 µg/mL (≈ 0.292 µM) | MIC [21]: 0.06 µg/mL (≈ 0.07 µM) | MIC (Enterococcus faecalis [22]): 4 µg/mL (≈ 4.67 µM)

CC[C@H]1OC(=O)[C@@](C)(F)C(=O)[C@H](C)[C@@H](O[C@@H]2O[C@H](C)C[C@H](N(C)C)[C@H]2O)[C@@](C)(OC)C[C@@H](C)C(=O)[C@H](C)[C@H]2N(CCCNc3cnc4ccccc4c3)C(=O)O[C@]12C
MIC (Enterococcus faecalis [1]): 0.06 µg/mL (≈ 0.0736 µM) | MIC (Streptococcus pneumoniae [2]): ≤ 0.016 µg/mL | MIC (Pseudomonas aeruginosa [3]): 32 µg/mL (≈ 39.3 µM) | MIC (Streptococcus pyogenes [4]): 0.12 µg/mL (≈ 0.147 µM) | MIC (Pseudomonas aeruginosa [5]): 16 µg/mL (≈ 19.6 µM) | MIC (Enterococcus faecalis [6]): > 32 µg/mL | MIC (Staphylococcus aureus [7]): 0.12 µg/mL (≈ 0.147 µM) | MIC (Escherichia coli [8]): 32 µg/mL (≈ 39.3 µM) | MIC (Escherichia coli [9]): 16 µg/mL (≈ 19.6 µM) | MIC (Streptococcus pyogenes [10]): 32 µg/mL (≈ 39.3 µM) | MIC (Klebsiella pneumoniae [11]): > 32 µg/mL | MIC (Klebsiella pneumoniae [12]): > 32 µg/mL | MIC (Escherichia coli [13]): 32 µg/mL (≈ 39.3 µM) | MIC (Streptococcus pneumoniae [14]): ≤ 0.016 µg/mL | MIC (Klebsiella pneumoniae [15]): > 32 µg/mL | MIC (Staphylococcus aureus [16]): 0.12 µg/mL (≈ 0.147 µM) | MIC (Enterococcus faecalis [17]): > 32 µg/mL | MIC (Staphylococcus aureus [18]): 0.12 µg/mL (≈ 0.147 µM) | MIC (Pseudomonas aeruginosa [19]): 32 µg/mL (≈ 39.3 µM) | MIC [20]: 0.12 µg/mL (≈ 0.147 µM) | MIC [21]: 0.12 µg/mL (≈ 0.147 µM) | MIC (Enterococcus faecalis [22]): > 32 µg/mL
